Measurements as given in article PMC10517971, “An inverse agonist of orphan receptor GPR61 acts by a G protein-competitive allosteric mechanism” (Nature Communications, 2023).
Several values for one entry are separate records, joined by “and”; a condition that tells them apart may be missing. Equal entries are not always repeated.

Assays:
human GPR61 R140A = molecular target: T1, human GPR61 R140A (Homo sapiens, UniProt Q9BZJ8, R140A); assay: Functional cAMP assay (HTRF), transiently transfected CHO-K1 cells, GPR61 R140A mutant; format: cell-based
T1 construct: expressed in transfected cells; host or cells: CHO-K1, transient (Fugene6)
Source text: (§1) The human GPR61 (reference sequence NM_031936.4) cDNA was synthesized and subcloned into pcDNA5/FRT/TO (Thermo Fisher, Pittsburgh, PA). The pcDNA5/FRT/TO/ human GPR61 plasmid was then transfected into the Flp-In™-CHO Cell Line (Thermo Fisher, Pittsburgh, PA) and a doxycycline-inducible clonal cell line was selected (CHO TREx hGPR61 WT). Sequences encoding untagged and HiBit/hemagglutinin (HA)-tagged versions of the wild-type human GPR61 were synthesized and cloned into pcDNA3.1. The HiBit ([…]) and HA ([…]) tags were sequentially included after the N-terminal initiator methionine. Four single amino acid substitutions (N137A, R140A, V288A, N345A) were then introduced in the untagged and tagged human GPR61 constructs using site-specific mutagenesis. The nucleotide sequences of all receptor constructs were confirmed by automated DNA sequencing.
Parental CHO-K1 cells were maintained at 37 °C in a humidified environment (5% CO2) and grown in Dulbecco’s Modified Eagle Medium (DMEM) F-12 media (Gibco, 11320033) supplemented with 10% FBS, 1% Glutamax (Gibco, 35050061) and 100units/ml penicillin and streptomycin (Gibco, 15140122. Cells were dissociated using a cell dissociation solution (Gibco, 13151-014), counted, and resuspended in complete culture media without antibiotics. Cells were then transiently transfected using Fugene6 (Promega) in a 384-well plate format (Corning, 3570). For each well, 7500 cells were transfected with 5 ng of receptor plasmid, 20 ng of carrier DNA (Promega, PAE4881) and 0.075 μl Fugene6 in a final volume of 25 μl. […] Surface and total receptor expression was measured separately by adding 25 μl per well of the extracellular (Promega, PRN2421) and lytic (Promega, PRN3040) assay solutions, respectively. Plates were incubated for 10 min at room temperature on a shaker and luciferase activity was measured using an EnVision plate reader (Perkin Elmer, Chicago, IL). […]
A homogeneous Time-Resolved Fluorescence (HTRF) assay (Perkin Elmer, Dynamic2 kit #) was used to assess receptor basal and inverse agonist activity at human GPR61, GPR62, and GPR101. […]

human GPR61 = molecular target: T2, human GPR61 (Homo sapiens, UniProt Q9BZJ8); assay: Functional cAMP assay (HTRF), stable CHO TREx human GPR61 cells; format: cell-based
T2 construct: expressed in transfected cells; host or cells: CHO-K1, transient (Fugene6)
Source text: as §1
A homogeneous Time-Resolved Fluorescence (HTRF) assay (Perkin Elmer, Dynamic2 kit #) was used to assess receptor basal and inverse agonist activity at human GPR61, GPR62, and GPR101. For routine inverse agonist screening frozen CHO TREx human GPR61, GPR62 and GPR101 cells were used. […] Data were analyzed using the ratio of fluorescence intensity at 620 and 665 nm for each well, extrapolated from the cAMP standard curve to express data as nM cAMP for each well. […]

T1 sequence (Q9BZJ8 whole entry R140A): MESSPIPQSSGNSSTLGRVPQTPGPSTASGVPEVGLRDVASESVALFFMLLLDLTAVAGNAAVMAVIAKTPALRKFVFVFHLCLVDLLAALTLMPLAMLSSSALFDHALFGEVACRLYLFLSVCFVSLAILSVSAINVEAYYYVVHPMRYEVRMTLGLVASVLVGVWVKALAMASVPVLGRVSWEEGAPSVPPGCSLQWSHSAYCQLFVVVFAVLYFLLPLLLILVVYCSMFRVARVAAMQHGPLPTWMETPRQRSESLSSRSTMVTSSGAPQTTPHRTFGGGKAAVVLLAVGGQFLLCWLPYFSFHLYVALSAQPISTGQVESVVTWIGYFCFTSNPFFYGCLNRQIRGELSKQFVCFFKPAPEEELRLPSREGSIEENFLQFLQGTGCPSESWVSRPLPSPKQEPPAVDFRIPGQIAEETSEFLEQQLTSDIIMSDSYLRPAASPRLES
T2 sequence (Q9BZJ8 whole entry): as the sequence (Q9BZJ8 whole entry R140A) above, with A140R counted along it

CCOc1cc(C)nc(N(CCOC)S(=O)(=O)c2ccc(NCc3c(F)cncc3F)nc2OC)n1 [Compound 1]
IC50 (human GPR61 R140A; Fig. 3e table, untagged, read-out: GPR61 cAMP IC50 (95% CI), R140A Untagged): 7.88 µM
cAMP response (Figure 3e source data) (human GPR61 R140A; HiBit R140A, concentration -8.5): 4.06 and 2.30 and 2.96 and 2.25 and 3.21
sensitivity of the receptor to inverse agonism in the cAMP assay (human GPR61 R140A; R140A mutant vs wild-type): less sensitive
potency against GPR61 relative to GPR62 and GPR101 (human GPR61; GPR61 vs GPR62 and GPR101, peer review reply): roughly 1000 fold
IC50 (human GPR61; stable CHO TREx cells, Supplementary Table 2): 0.021 µM
